Legend:
[1] = tested on: SK-N-BE2c; assay: Cell viability, CellTiter Glo Assay, SK-N-BE2c; type: cell-based; details: SK-N-BE(2)-C, neuroblastoma cell line, read-out: Effect of AOH39 on Cell Viability IC50
Protocol: (§1) The IC50's listed in Table 1 and in FIGS. 8 and 9 were determined by monitoring cell proliferation in the absence or presence of increasing concentrations of AOH39 using the Cell-Titer Glo Assay, (Promega Inc., Madison, Wis.) which monitors the energy status of the entire culture and the viability of the cell population. (https://www.promega.com/products/cell-health-and-metabolismicell-viability-assaysicelltiter_glo-luminescent-cell-viability-assay/). As the population doubles so does the quantum yield from the assay. HCC1937 is a BRCA1 defective Breast Cancer cell line; MCF7 is an ER+ breast cancer cell line; MDA-MB231 and MDA-MB468 are ER-aggressive breast cancer cell lines. SK-N-AS, SK-N-BE2c, SK-N-DZ lines are neuroblastoma cell lines and LAN5 cells are a cell line derived from a neuroblastoma bone metastasis; MCF10A is a non-malignant but immortalized breast cell line. PBMC—peripheral blood monocytes (proliferating normal cells), and MCF10A is an immortalized but non-malignant breast epithelial cell line. Referring to FIGS. 8 and 9, the X-axis is the Log of AOH39 concentration in uM, where 0 corresponds to 1 uM and 1 corresponds to 10 uM. The Y-Axis indicates cell proliferation as a percentage of identical cell cultures grown in PBS/DMSO without added AOH39.

[2] = tested on: MDA-MB231; assay: Cell viability, CellTiter Glo Assay, MDA-MB231; type: cell-based; details: Homo sapiens, MDA-MB-231; MDA-MB231, ER- breast cancer cell line; read-out: Effect of AOH39 on Cell Viability IC50
Protocol: as §1

[3] = tested on: MCF10A; assay: Cell viability, CellTiter Glo Assay, MCF10A; type: cell-based; details: Homo sapiens, MCF-10A, non-malignant but immortalized breast cell line, read-out: Effect of AOH39 on Cell Viability IC50
Protocol: as §1

[4] = tested on: MCF7 Cell SV40 origin-dependent In Vitro DNA replication; assay: T-antigen and SV40 origin dependent in vitro DNA replication reaction; type: biochemical; details: for Inhibition of in vitro DNA replication: relative to reaction containing Tris-HCl/DMSO
Protocol: In vitro DNA replication activity was determined using the standard T-antigen and SV40 origin dependent in vitro DNA replication reaction (L. Malkas et al., Biochemistry 29: 6362-6374 (1990) and percent inhibition was determined relative to a reaction containing Tris-HCl/DMSO in place of AOH39.) The reaction was started with the addition of T-antigen to the reaction mixture. Results are shown in FIG. 3, with AOH39 inhibiting replication by roughly 50% at concentrations of 5 μM and by more than 75% at 10 μM.
(§2) There is a precise correlation between the ability of AOH39 to inhibit the SV40 origin dependent in vitro DNA replication process and MCF7 cell viability, FIG. 4. Cell viability was determined colorimetrically using the MTT assay following a 72 hour incubation with 10 μM of AOH39. In vitro DNA replication activity was determined using the standard T-antigen and SV40 origin dependent in vitro DNA replication reaction (L. Malkas et al., Biochemistry, 29, 6362-6374 (1990)), and percent inhibition was determined relative to a reaction containing Tris-HCl/DMSO in place of AOH39 for the activity assay, and PBS/DMSO for the viability assay.

[5] = tested on: MDA-MB468; assay: Cell viability, CellTiter Glo Assay, MDA-MB468; type: cell-based; details: Homo sapiens, MDA-MB-468; MDA-MB468, ER- breast cancer cell line; read-out: Effect of AOH39 on Cell Viability IC50
Protocol: as §1

[6] = tested on: SK-N-DZ; assay: Cell viability, CellTiter Glo Assay, SK-N-DZ; type: cell-based; details: Homo sapiens, neuroblastoma cell line, read-out: Effect of AOH39 on Cell Viability IC50
Protocol: as §1

[7] = tested on: PBMC; assay: Cell viability, CellTiter Glo Assay, PBMC; type: cell-based; details: peripheral blood monocytes (proliferating normal cells), read-out: Effect of AOH39 on Cell Viability IC50
Protocol: as §1

[8] = tested on: HCC1937; assay: Cell viability, CellTiter Glo Assay, HCC1937; type: cell-based; details: Homo sapiens; HCC1937, BRCA1 defective breast cancer cell line; read-out: Effect of AOH39 on Cell Viability IC50
Protocol: as §1

[9] = tested on: SK-N-AS; assay: Cell viability, CellTiter Glo Assay, SK-N-AS; type: cell-based; details: Homo sapiens, neuroblastoma cell line, read-out: Effect of AOH39 on Cell Viability IC50
Protocol: as §1

[10] = tested on: MCF7; assay: Cell viability, CellTiter Glo Assay, MCF7; type: cell-based; details: Homo sapiens; MCF7, ER+ breast cancer cell line; read-out: Effect of AOH39 on Cell Viability IC50
Protocol: as §1

[11] = tested on: MCF7 cells; assay: MCF7 cell viability, MTT assay; type: cell-based; details: 72 hour incubation with 10 μM
Protocol: as §2

[12] = tested on: LAN5; assay: Cell viability, CellTiter Glo Assay, LAN5; type: cell-based; details: LA-N-5; LAN5, neuroblastoma bone metastasis cell line; read-out: Effect of AOH39 on Cell Viability IC50
Protocol: as §1

IC50 [1]: 2900 nM
IC50 [2]: 1000 nM
IC50 [5]: 3300 nM
IC50 [6]: 1700 nM
IC50 [8]: 2200 nM
IC50 [9]: 2200 nM
IC50 [10]: 3100 nM
SMILES: O=C(CNC(=O)c1cccc2ccccc12)Nc1ccccc1Cc1ccccc1 [AOH39]
IC50 [3]: 6200 nM
Inhibition of in vitro DNA replication ([4]; 5 μM): roughly 50%
Inhibition of in vitro DNA replication ([4]; 10 μM): more than 75%
Inhibition of DNA replication (in words) ([4]; relative to control replication reaction containing PBS/DMSO in place of compound): inhibited DNA replication significantly
IC50 [7]: 13200 nM
MCF7 cell viability (in words) [11]: significant decrease in MCF7 cell viability
IC50 [12]: 1200 nM
